Measurements published in ChEMBL document CHEMBL3638768, “(aza)indole derivative and use thereof for medical purposes” (2015).

Biological target: Xanthine dehydrogenase/oxidase (Bos taurus, UniProt P80457)
Assay: Inhibition Assay: Test compounds were dissolved in DMSO (Wako) at 40 mM concentration and then diluted to intended concentrations with phosphate-buffered saline (PBS). Xanthine oxidase (from bovine milk, Sigma) was prepared with phosphate-buffered saline (PBS) at 0.02 units/mL, and then the solution was added to 96 well plates at 50 μL/well. In addition, test compounds diluted with PBS were added at 50 μL/well. Xanthine (Wako) at 200 μM prepared with PBS was added at 100 μL/well, and the reaction was conducted for 10 minutes at room temperature. Absorbance at 290 nm was measured using a microplate reader SpectraMax Plus 384 (Molecular device). The absorbance under a condition without xanthine is 0%, and control without test compounds is 100%.

Chain of Xanthine dehydrogenase/oxidase (P80457 whole entry): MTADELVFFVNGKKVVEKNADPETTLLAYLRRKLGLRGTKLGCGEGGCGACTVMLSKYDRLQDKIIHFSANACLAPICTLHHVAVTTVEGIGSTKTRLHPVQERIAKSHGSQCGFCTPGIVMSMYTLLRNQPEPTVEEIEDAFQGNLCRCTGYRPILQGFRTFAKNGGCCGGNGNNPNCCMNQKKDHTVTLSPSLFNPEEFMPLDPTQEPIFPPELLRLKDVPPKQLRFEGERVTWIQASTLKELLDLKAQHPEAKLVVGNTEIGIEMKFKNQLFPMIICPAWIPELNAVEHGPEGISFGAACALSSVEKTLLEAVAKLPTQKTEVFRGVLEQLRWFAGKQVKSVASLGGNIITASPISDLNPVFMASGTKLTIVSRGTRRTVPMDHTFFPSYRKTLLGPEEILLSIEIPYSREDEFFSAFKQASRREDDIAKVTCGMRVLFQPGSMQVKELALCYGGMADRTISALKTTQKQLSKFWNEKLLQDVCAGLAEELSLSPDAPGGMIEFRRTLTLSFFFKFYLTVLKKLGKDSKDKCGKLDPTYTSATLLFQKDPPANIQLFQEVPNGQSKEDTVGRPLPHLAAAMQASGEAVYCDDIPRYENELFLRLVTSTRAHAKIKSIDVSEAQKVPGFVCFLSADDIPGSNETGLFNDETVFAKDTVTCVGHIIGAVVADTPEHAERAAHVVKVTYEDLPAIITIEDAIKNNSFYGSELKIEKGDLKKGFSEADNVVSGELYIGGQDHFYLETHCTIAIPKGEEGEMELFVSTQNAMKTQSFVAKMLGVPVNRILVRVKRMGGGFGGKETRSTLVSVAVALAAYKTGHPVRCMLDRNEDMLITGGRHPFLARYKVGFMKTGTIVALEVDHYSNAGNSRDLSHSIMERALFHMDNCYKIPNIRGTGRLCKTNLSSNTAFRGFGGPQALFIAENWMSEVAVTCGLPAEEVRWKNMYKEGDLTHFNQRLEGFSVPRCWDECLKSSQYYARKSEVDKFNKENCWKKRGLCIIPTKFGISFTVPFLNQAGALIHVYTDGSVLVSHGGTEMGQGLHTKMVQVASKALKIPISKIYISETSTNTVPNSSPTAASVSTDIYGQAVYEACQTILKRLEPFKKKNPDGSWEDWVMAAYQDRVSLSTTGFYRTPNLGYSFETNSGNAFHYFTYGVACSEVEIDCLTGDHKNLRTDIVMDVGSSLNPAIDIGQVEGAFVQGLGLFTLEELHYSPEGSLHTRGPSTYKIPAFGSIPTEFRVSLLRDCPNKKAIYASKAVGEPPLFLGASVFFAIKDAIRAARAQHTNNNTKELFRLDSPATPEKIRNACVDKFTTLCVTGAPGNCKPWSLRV

- IC50: 72.9 nM
SMILES: N#Cc1cn(-c2ccc(C(=O)O)cn2)c2ccccc12
